In article PMC8658963, “Synthesis and Evaluation of Trypanocidal Activity of Chromane-Type Compounds and Acetophenones” (Molecules, 2021):
Read-outs that look alike come from different tables or passages of the source.

Key:
in vitro = conditions: human, Cytotoxicity (LC50)
Description: (§1) Cytotoxicity was evaluated in the human monocyte cell line U-937 (ATCC CRL-1593.2) at the exponential growth phase, adjusted at 1 × 10^5 cells/mL in complete RPMI-1640 medium (RPMI-1640 enriched with 200 mM L-glutamine, 10% inactivated fetal bovine serum (FBS) and 1% of a mixture of 10,000 IU/mL penicillin plus […] streptomycin). Then, in each well of a 96-well tissue culture plate were dispensed […] of cells plus […] of each compound (as one of six serials 1:2 dilution concentrations starting at 368 µM prepared in the same medium). Doxorubicin was included as an internal positive control under the same dilution pattern, starting at 18 µM whereas unexposed cells were used as negative controls. Afterward, cells were incubated for 72 h at 37 °C and 5% CO2. Cell viability was assayed by the MTT reduction assay according to the optical density (O.D) at 570 nm of the resulting reduction of formazan in a Varioskan Flash Multimode Reader (Thermo Scientific, Waltham, MA, USA). Nonspecific absorbance was corrected by subtracting the O.D of the blank solution that corresponded to complete RPMI-1640 medium. The assay was done in triplicate in at least two independent experiments.
(§2) The cytotoxicity was expressed as the medial lethal concentration (LC50), while the trypanocidal activity was defined as the median effective concentration (EC50) according to the percentage of inhibition of cells and parasites, respectively, as described elsewhere. Both LC50 and EC50 were calculated by the Probit analysis. […] Similarly, the trypanocidal activity was graded according to EC50 values, based on the hit criteria proposed by others into high when EC50 was lower than 10 μM, moderate when EC50 values were higher than 10 μM but lower than 50 μM and, low when EC50 was higher than 50 μM. The relation between cytotoxicity and trypanocidal activity was expressed as the index of selectivity (IS) that corresponded to the ratio when dividing the LC50 by the EC50.

[1] = system: intracellular amastigotes of T. cruzi (Tulahuen strain transfected with the β-galactosidase gene); assay: Anti-trypanosomal activity, β-galactosidase readout in infected U937 macrophages, 72 h; format: cell-based, Trypanosoma cruzi; conditions: for SI (index of selectivity, IS = LC50/EC50): LC50 in U937 cells divided by EC50 against T. cruzi; for Trypanocidal activity compared with the control drug BNZ / Trypanocidal activity (grade): T. cruzi intracellular amastigotes; for Trypanocidal activity compared with the control drug BNZ: result in words
Description: This activity was carried out in intracellular amastigotes of T. cruzi (Tulahuen strain transfected with the β-galactosidase gene. Briefly, metacyclic trypomastigotes were cultured at 26 °C for ten days in a modified NNN (Novy−McNeal−Nicolle) medium. U937 cells were seeded in 96-well tissue culture plates at a density of 2.5 × 10^4 cells in 100 μL of complete RPMI-1640 medium/well and exposed for 24 h to phorbol myristate acetate (1 ng/mL) to induce transformation of monocytes into macrophages. Cells were infected with trypomastigotes (5 parasites per cell) and incubated for 24 h at 37 °C, 5% CO2. Wells were washed twice with warm phosphate buffer solution (PBS) to remove noninternalized parasites, and then were added 100 μL of complete RPMI-1640 medium and 100 μL of each concentration of compound (50, 12.5, 3.125 μM). BNZ, at the same concentrations, was used as internal control for trypanocidal activity (positive control), and nontreated cells as controls for infection (negative control). After 72 h of incubation 37 °C, 5% CO2, the viability of intracellular amastigotes was determined by measuring the β-galactosidase activity. For this, 100 μM of Chlorophenol red-β-D- galactopyranoside (CPRG), and 0.1% Nonidet P-40 was added to each well and incubated for 4 h at 37 °C, […] protected from light. After that, measurement β-galactosidase activity was measured at 570 nm on a Varioskan, Thermo spectrophotometer. Nonspecific absorbance was subtracted from the measurement. Infected cells exposed to benznidazole were used as controls for anti-trypanosomal activity. Determinations were done in triplicate with at least two independent experiments.

[2] = system: human monocyte cell line U-937 (ATCC CRL-1593.2); assay: Cytotoxic activity, MTT reduction assay, 72 h; conditions: for Cytotoxicity level (grade): U937 cells, graded by LC50; for Cytotoxicity (LC50) / CC50: human, 72 h
Description: as §1, §2

[3] = Trypanosoma cruzi, TULAHUEN, U-937, 72 h, read-out: Trypanocidal Activity (EC50), intracellular amastigotes of T. cruzi Tulahuen in U937 macrophages, 72 h, average ± SD (SEM)
[4] = Trypanosoma cruzi, TULAHUEN, U-937, read-out: Trypanocidal activity (grade), T. cruzi intracellular amastigotes, graded by EC50
[5] = Trypanosoma cruzi, TULAHUEN, U-937, 72 h, intracellular amastigotes of T. cruzi Tulahuen in U937 macrophages, 72 h, average ± SD (SEM), read-out: Trypanocidal Activity (EC50)
[6] = Trypanosoma cruzi, TULAHUEN, U-937, T. cruzi intracellular amastigotes, graded by EC50, read-out: Trypanocidal activity (grade)
[7] = read-out: Trypanocidal Activity (EC50), intracellular amastigotes of T. cruzi Tulahuen in U937 macrophages, 72 h, average ± SD (SEM)

Structure (SMILES) | CC50 at 72 h (in vitro) [µM] | SI (index of selectivity, IS = LC50/EC50) [1] | EC50 [1, 3] [µM] | EC50 [1, 5] [µM] | Trypanocidal activity compared with the control drug BNZ [1] | further results
COCOc1cc(O)c(C(=O)C=Cc2ccc(OC)cc2)cc1CC=C(C)C [Compound 27, 1-(2-Hydroxy-4-(methoxymethoxy)-5-(3-methylbut-2-en-1-yl)phenyl)-3-(4-methoxyphenyl)prop-2-en-1-one] | 43.4 ± 7.3 | 1.2 | 35.3 ± 1.1 | – | – | EC50 [1, 4]: 10 to 50 µM
O=C(Cn1ccnc1[N+](=O)[O-])NCc1ccccc1 [BNZ, benznidazole, reference compound] | > 768 | – | – | 56.5 ± 1.5 | – | Cytotoxicity level (grade) [2]: no cytotoxicity; EC50 [1, 6]: 10 to 50 µM
O=c1ccoc2ccc(O)cc12 [Compound 11, 6-Hydroxy-4H-chromen-4-one] | 28 ± 1.9 | 2.4 | – | 11.8 ± 0.3 | much better trypanocidal activity than the control drug BNZ | EC50 [1, 6]: 10 to 50 µM
CC(C)=CCc1cc2c(=O)ccoc2c(O)c1O [Compound 26, 7,8-Dihydroxy-6-(3-methylbut-2-en-1-yl)-4H-chromen-4-one] | – | 4.59 | < 10 | – | much better trypanocidal activity than the control drug BNZ | Cytotoxicity (LC50) [2]: >200 µM; EC50 [1, 7]: 10.3 µM
CC(C)=CCc1c(O)ccc2c(=O)ccoc12 [Compound 24, 7-Hydroxy-8-(3-methylbut-2-en-1-yl)-4H-chromen-4-one] | > 100 | >0.9 | 111 ± 18.5 | – | – | Trypanocidal activity (grade) ([1]; graded by EC50): very low
COCOc1cc2oc(-c3ccc(OC)cc3)cc(=O)c2cc1CC=C(C)C [Compound 29, 7-(Methoxymethoxy)-2-(4-methoxyphenyl)-6-(3-methylbut-2-en-1-yl)-4H-chromen-4-one] | 17 ± 0.2 | <2 | > 9.8 | – | much better trypanocidal activity than the control drug BNZ | –
CC(=O)c1ccc(O)cc1O [Compound 5, 1-(2,4-Dihydroxyphenyl)ethan-1-one] | 54 ± 0.5 | 3.0 | – | 17.8 ± 0.8 | – | –
COc1cccc2c1C(=O)c1c(O)c3c(c(O)c1C2=O)C[C@@](O)(C(=O)CO)C[C@@H]3O[C@H]1C[C@H](N)[C@H](O)[C@H](C)O1 [DOX, doxorubicin, reference compound] | 0.5 | – | – | – | – | –
CC(=O)c1c(O)cccc1O [Compound 7, 1-(2,6-Dihydroxyphenyl)ethan-1-one] | 10.5 ± 0.6 | 1.5 | – | < 10 | much better trypanocidal activity than the control drug BNZ | CC50 [2]: 15.3 ± 1.9 µM; EC50 ([1]; intracellular amastigotes of T. cruzi Tulahuen in U937 macrophages, 72 h, average ± SD (SEM), read-out: Trypanocidal Activity (EC50)): 10.5 ± 0.6 µM
CC(=O)c1ccc(O)c(CC=C(C)C)c1O [Compound 15, 1-(2,4-Dihydroxy-3-(3-methylbut-2-en-1-yl)phenyl)ethan-1-one] | 25.2 ± 4.6 | 1.2 | 20.7 ± 1.1 | – | – | EC50 [1, 4]: 10 to 50 µM
CC(=O)c1cc(CC=C(C)C)c(O)c(O)c1O [Compound 18, 1-(2,3,4-Trihydroxy-5-(3-methylbut-2-en-1-yl)phenyl)ethan-1-one] | < 10 | – | – | – | – | Cytotoxicity level (grade) [2]: high (high when LC50 values were lower than 50 μM); CC50 [2]: 5 ± 1.7 µM
CC(=O)c1ccc(O)c(O)c1O [Compound 8, 1-(2,3,4-Trihydroxyphenyl)ethan-1-one] | > 200 | >10.9 | – | 18.3 ± 1.1 | much better trypanocidal activity than the control drug BNZ | EC50 [1, 6]: 10 to 50 µM
CC(=O)c1c(O)cc(O)cc1O [Compound 9, 1-(2,4,6-Trihydroxyphenyl)ethan-1-one] | > 200 | >4.1 | – | 49.3 ± 9 | – | EC50 [1, 6]: 10 to 50 µM
O=c1ccoc2cc(O)ccc12 [Compound 10, 7-Hydroxy-4H-chromen-4-one] | 23.4 ± 6.4 | <2 | – | > 11.7 | – | –
O=c1ccoc2c(O)c(O)ccc12 [Compound 13, 7,8-Dihydroxy-4H-chromen-4-one] | 43 ± 0.9 | 0.3 | – | 154 ± 26.8 | – | Trypanocidal activity (grade) ([1]; graded by EC50): very low
CC(=O)c1c(O)ccc(CC=C(C)C)c1O [Compound 16, 1-(2,6-Dihydroxy-3-(3-methylbut-2-en-1-yl)phenyl)ethan-1-one] | < 10 | <2 | > 4 | – | – | Cytotoxicity level (grade) [2]: high (high when LC50 values were lower than 50 μM); CC50 [2]: 7.8 ± 3.1 µM
COCOc1cc2oc(-c3ccc(Cl)cc3)cc(=O)c2cc1CC=C(C)C [Compound 30, 2-(4-Chlorophenyl)-7-(methoxymethoxy)-6-(3-methylbut-2-en-1-yl)-4H-chromen-4-one] | 27.2 ± 3.3 | <2 | > 13.6 | – | much better trypanocidal activity than the control drug BNZ | –
CC(=O)c1cc(CC=C(C)C)c(O)cc1O [Compound 14, 1-(2,4-Dihydroxy-5-(3-methylbut-2-en-1-yl)phenyl)ethan-1-one] | 34 ± 4.9 | <2 | > 17 | – | – | –
CC(=O)c1c(O)cc(O)c(CC=C(C)C)c1O [Compound 17, 1-(2,4,6-Trihydroxy-3-(3-methylbut-2-en-1-yl)phenyl)ethan-1-one] | 21.2 ± 6.9 | 2.8 | < 10 | – | – | EC50 [1, 7]: 7.5 µM
CC(C)=CCc1ccc2occc(=O)c2c1O [Compound 25, 5-Hydroxy-6-(3-methylbut-2-en-1-yl)-4H-chromen-4-one] | – | >5.8 | 17.3 ± 0.4 | – | much better trypanocidal activity than the control drug BNZ | Cytotoxicity (LC50) [2]: 47.1 ± 5.5 µM; EC50 [1, 4]: 10 to 50 µM
COCOc1cc(O)c(C(=O)C=Cc2ccc(Cl)cc2)cc1CC=C(C)C [Compound 28, 3-(4-Chlorophenyl)-1-(2-hydroxy-4-(methoxymethoxy)-5-(3-methylbut-2-en-1-yl)phenyl)prop-2-en-1-one] | – | <2 | > 0.3 | – | much better trypanocidal activity than the control drug BNZ | Cytotoxicity level (grade) [2]: high (high when LC50 values were lower than 50 μM)
CC(C)=CCc1cc2c(=O)ccoc2cc1O [Compound 23, 7-Hydroxy-6-(3-methylbut-2-en-1-yl)-4H-chromen-4-one] | > 200 | >10 | > 20 | – | – | –
O=c1ccoc2cccc(O)c12 [Compound 12, 5-Hydroxy-4H-chromen-4-one] | > 100 | >5.0 | – | 19.9 ± 1.3 | much better trypanocidal activity than the control drug BNZ | EC50 [1, 6]: 10 to 50 µM
